How the values were obtained:
Assay in all cases: IO staining of colonies of beta-D-galactosidase positive/negative bacteria (Table IVb)
Assay type in all cases: cell-based
Aeromonas hydrophila 292 = details: Aeromonas hydrophila strain 292, b-gal +; 24 h on Nutrient Agar, 150 mg/l indicator, 100 mg/l IPTG
Citrobacter freundii 181 = details: Citrobacter freundii strain 181, b-gal +; 24 h on Nutrient Agar, 150 mg/l indicator, 100 mg/l IPTG
[1] = tested on: Enterobacter aerogenes 242; details: Enterobacter aerogenes strain 242, b-gal +; 24 h on Nutrient Agar, 150 mg/l indicator, 100 mg/l IPTG; on C: Color of colonies: key: −: absent; +/−: weak; +: strong; ++: very strong; on G: Growth of colonies: key: −: absent; +/−: weak; +: strong; ++: very strong
Enterobacter cloacae 245 = details: Enterobacter cloacae strain 245, b-gal +; 24 h on Nutrient Agar, 150 mg/l indicator, 100 mg/l IPTG
[2] = tested on: Escherichia coli (O157:H7) 60; details: Escherichia coli (O157:H7) strain 60, b-gal +; 24 h on Nutrient Agar, 150 mg/l indicator, 100 mg/l IPTG
Escherichia coli 61 = details: Escherichia coli strain 61, b-gal +; 24 h on Nutrient Agar, 150 mg/l indicator, 100 mg/l IPTG
Escherichia coli 270 = details: Escherichia coli strain 270, b-gal +; 24 h on Nutrient Agar, 150 mg/l indicator, 100 mg/l IPTG
[3] = tested on: Klebsiella pneumoniae 164; details: Klebsiella pneumoniae strain 164, b-gal +; 24 h on Nutrient Agar, 150 mg/l indicator, 100 mg/l IPTG; on C: Color of colonies: key: −: absent; +/−: weak; +: strong; ++: very strong; on G: Growth of colonies: key: −: absent; +/−: weak; +: strong; ++: very strong
Serratia marcescens 40 = details: Serratia marcescens strain 40, b-gal +; 24 h on Nutrient Agar, 150 mg/l indicator, 100 mg/l IPTG
[4] = tested on: Staphylococcus intermedius 31; details: Staphylococcus intermedius strain 31, b-gal +; 24 h on Nutrient Agar, 150 mg/l indicator, 100 mg/l IPTG
[5] = tested on: Staphylococcus saprophyticus 273; details: Staphylococcus saprophyticus strain 273, b-gal +; 24 h on Nutrient Agar, 150 mg/l indicator, 100 mg/l IPTG; on G: Growth of colonies: key: −: absent; +/−: weak; +: strong; ++: very strong
Salmonella bongori 81 = details: Salmonella bongori strain 81, b-gal +; 24 h on Nutrient Agar, 150 mg/l indicator, 100 mg/l IPTG
Salmonella illa 73 = details: Salmonella illa strain 73, b-gal +; 24 h on Nutrient Agar, 150 mg/l indicator, 100 mg/l IPTG
[6] = tested on: Shigella dysenteriae Serovar 1 131; details: Shigella dysenteriae Serovar 1 strain 131, b-gal +/−; 24 h on Nutrient Agar, 150 mg/l indicator, 100 mg/l IPTG
Shigella sonnei 133 = details: Shigella sonnei strain 133, b-gal +/−; 24 h on Nutrient Agar, 150 mg/l indicator, 100 mg/l IPTG
[7] = tested on: Yersinia enterocolitica 175; details: Yersinia enterocolitica strain 175, b-gal +/−; 24 h on Nutrient Agar, 150 mg/l indicator, 100 mg/l IPTG; on G: Growth of colonies: key: −: absent; +/−: weak; +: strong; ++: very strong
[8] = tested on: Salmonella enteritidis 43; details: Salmonella enteritidis strain 43, b-gal −; 24 h on Nutrient Agar, 150 mg/l indicator, 100 mg/l IPTG; further: key: −: absent; +/−: weak; +: strong; ++: very strong
Bacillus subtilis 65 = details: Bacillus subtilis strain 65, b-gal −; 24 h on Nutrient Agar, 150 mg/l indicator, 100 mg/l IPTG
[9] = tested on: Listeria monocytogenes (4b) 290; details: Listeria monocytogenes (4b) strain 290, b-gal −; 24 h on Nutrient Agar, 150 mg/l indicator, 100 mg/l IPTG; on C: Color of colonies: key: −: absent; +/−: weak; +: strong; ++: very strong; on F: Fluorescence of colonies: key: −: absent; +/−: weak; +: strong; ++: very strong
[10] = tested on: Pseudomonas aeruginosa 168; details: Pseudomonas aeruginosa strain 168, b-gal −, 24 h on Nutrient Agar, 150 mg/l indicator, 100 mg/l IPTG; for F: Fluorescence of colonies: footnote 1: blue autofluorescence; on C: Color of colonies: key: −: absent; +/−: weak; +: strong; ++: very strong; on G: Growth of colonies: key: −: absent; +/−: weak; +: strong; ++: very strong
Shigella boydii 135 = details: Shigella boydii strain 135, b-gal −; 24 h on Nutrient Agar, 150 mg/l indicator, 100 mg/l IPTG
Staphylococcus aureus 2 = details: Staphylococcus aureus strain 2, b-gal −, 24 h on Nutrient Agar, 150 mg/l indicator, 100 mg/l IPTG; for C: Color of colonies: footnote 2: S. aureus natural color
[11] = tested on: Streptococcus agalactiae 195; details: Streptococcus agalactiae strain 195, b-gal −; 24 h on Nutrient Agar, 150 mg/l indicator, 100 mg/l IPTG; on C: Color of colonies: key: −: absent; +/−: weak; +: strong; ++: very strong; on F: Fluorescence of colonies: key: −: absent; +/−: weak; +: strong; ++: very strong

CC(=O)c1ccccc1-n1cc(O[C@@H]2O[C@H](CO)[C@H](O)[C@H](O)[C@H]2O)c2ccc(Cl)cc21 [Indicator I16a, 1-(2-Acetylphenyl)-6-chloro-1H-indol-3-yl-beta-D-galactopyranoside]
−: C: Color of colonies (Salmonella illa 73) | F: Fluorescence of colonies (Salmonella illa 73) | C: Color of colonies [6] | F: Fluorescence of colonies [6] | C: Color of colonies [7] | F: Fluorescence of colonies [7] | C: Color of colonies [8] | F: Fluorescence of colonies [8] | C: Color of colonies (Bacillus subtilis 65) | F: Fluorescence of colonies (Bacillus subtilis 65) | C: Color of colonies [9] | F: Fluorescence of colonies [9] | C: Color of colonies [10] | C: Color of colonies (Shigella boydii 135) | F: Fluorescence of colonies (Shigella boydii 135) | F: Fluorescence of colonies (Staphylococcus aureus 2) | C: Color of colonies (Staphylococcus aureus 2) | C: Color of colonies [11] | F: Fluorescence of colonies [11]
+: C: Color of colonies (Aeromonas hydrophila 292) | F: Fluorescence of colonies (Aeromonas hydrophila 292) | G: Growth of colonies (Aeromonas hydrophila 292) | C: Color of colonies (Citrobacter freundii 181) | F: Fluorescence of colonies (Citrobacter freundii 181) | G: Growth of colonies (Citrobacter freundii 181) | C: Color of colonies [1] | F: Fluorescence of colonies [1] | G: Growth of colonies [1] | C: Color of colonies (Enterobacter cloacae 245) | F: Fluorescence of colonies (Enterobacter cloacae 245) | G: Growth of colonies (Enterobacter cloacae 245) | C: Color of colonies [2] | F: Fluorescence of colonies [2] | G: Growth of colonies [2] | C: Color of colonies (Escherichia coli 61) | F: Fluorescence of colonies (Escherichia coli 61) | G: Growth of colonies (Escherichia coli 61) | C: Color of colonies (Escherichia coli 270) | F: Fluorescence of colonies (Escherichia coli 270) | G: Growth of colonies (Escherichia coli 270) | C: Color of colonies [3] | F: Fluorescence of colonies [3] | G: Growth of colonies [3] | C: Color of colonies (Serratia marcescens 40) | F: Fluorescence of colonies (Serratia marcescens 40) | G: Growth of colonies (Serratia marcescens 40) | C: Color of colonies [5] | F: Fluorescence of colonies [5] | G: Growth of colonies [5] | G: Growth of colonies (Salmonella bongori 81) | G: Growth of colonies (Salmonella illa 73) | G: Growth of colonies [6] | C: Color of colonies (Shigella sonnei 133) | F: Fluorescence of colonies (Shigella sonnei 133) | G: Growth of colonies (Shigella sonnei 133) | G: Growth of colonies [7] | G: Growth of colonies [8] | G: Growth of colonies (Bacillus subtilis 65) | G: Growth of colonies [10] | G: Growth of colonies (Shigella boydii 135)
+^1: F: Fluorescence of colonies [10]
+/−: C: Color of colonies [4] | F: Fluorescence of colonies [4] | G: Growth of colonies [4] | C: Color of colonies (Salmonella bongori 81) | F: Fluorescence of colonies (Salmonella bongori 81) | G: Growth of colonies [9] | G: Growth of colonies (Staphylococcus aureus 2) | G: Growth of colonies [11]

COc1ccc(C(=O)c2ccccc2-n2cc(O[C@@H]3O[C@H](CO)[C@H](O)[C@H](O)[C@H]3O)c3ccccc32)c(OC)c1 [Indicator I25a, 1-[2-(2,4-Dimethoxybenzoyl)phenyl]-1H-indol-3-yl-beta-D-galactopyranoside]
−: C: Color of colonies (Salmonella illa 73) | F: Fluorescence of colonies (Salmonella illa 73) | C: Color of colonies [6] | F: Fluorescence of colonies [6] | C: Color of colonies [7] | F: Fluorescence of colonies [7] | C: Color of colonies [8] | F: Fluorescence of colonies [8] | C: Color of colonies (Bacillus subtilis 65) | F: Fluorescence of colonies (Bacillus subtilis 65) | C: Color of colonies [9] | F: Fluorescence of colonies [9] | C: Color of colonies [10] | C: Color of colonies (Shigella boydii 135) | F: Fluorescence of colonies (Shigella boydii 135) | F: Fluorescence of colonies (Staphylococcus aureus 2) | C: Color of colonies [11] | F: Fluorescence of colonies [11]
++: F: Fluorescence of colonies (Enterobacter cloacae 245) | C: Color of colonies [2] | F: Fluorescence of colonies [2] | C: Color of colonies (Escherichia coli 61) | F: Fluorescence of colonies (Escherichia coli 61) | C: Color of colonies (Escherichia coli 270) | F: Fluorescence of colonies (Escherichia coli 270) | F: Fluorescence of colonies (Shigella sonnei 133)
+: C: Color of colonies (Aeromonas hydrophila 292) | G: Growth of colonies (Aeromonas hydrophila 292) | C: Color of colonies (Citrobacter freundii 181) | F: Fluorescence of colonies (Citrobacter freundii 181) | G: Growth of colonies (Citrobacter freundii 181) | C: Color of colonies [1] | F: Fluorescence of colonies [1] | G: Growth of colonies [1] | C: Color of colonies (Enterobacter cloacae 245) | G: Growth of colonies (Enterobacter cloacae 245) | G: Growth of colonies [2] | G: Growth of colonies (Escherichia coli 61) | G: Growth of colonies (Escherichia coli 270) | C: Color of colonies [3] | F: Fluorescence of colonies [3] | G: Growth of colonies [3] | C: Color of colonies (Serratia marcescens 40) | G: Growth of colonies (Serratia marcescens 40) | G: Growth of colonies [4] | G: Growth of colonies [5] | G: Growth of colonies (Salmonella bongori 81) | G: Growth of colonies (Salmonella illa 73) | G: Growth of colonies [6] | C: Color of colonies (Shigella sonnei 133) | G: Growth of colonies (Shigella sonnei 133) | G: Growth of colonies [7] | G: Growth of colonies [8] | G: Growth of colonies (Bacillus subtilis 65) | G: Growth of colonies [10] | G: Growth of colonies (Shigella boydii 135) | G: Growth of colonies (Staphylococcus aureus 2)
+/−^2: C: Color of colonies (Staphylococcus aureus 2)
+/−: F: Fluorescence of colonies (Aeromonas hydrophila 292) | F: Fluorescence of colonies (Serratia marcescens 40) | C: Color of colonies [4] | F: Fluorescence of colonies [4] | C: Color of colonies [5] | F: Fluorescence of colonies [5] | C: Color of colonies (Salmonella bongori 81) | F: Fluorescence of colonies (Salmonella bongori 81) | G: Growth of colonies [9] | G: Growth of colonies [11]
+^1: F: Fluorescence of colonies [10]

Reference: US8940909B2, “Indicator platform” (Biosynth AG, priority 2009, dated 2015)
